System: renal cell lines
Assay: NCI five-dose assay, renal subpanel
Type: cell-based
Details: Homo sapiens
Procedure: All compounds were subjected to the NCI in vitro disease-oriented human cells screening panel assay. The human tumor cell lines of the cancer-screening panel are grown in RPMI 1640 medium containing 5% fetal bovine serum and 2 mM L-glutamine. For a typical screening experiment, cells are inoculated into 96-well microtiter plates in 100 μL at plating densities ranging from 5000 to 40,000 cells/well depending on the doubling time of individual cell lines. After cell inoculation, the microtiter plates are incubated at 37 °C, 5% CO2, 95% air, and 100% relative humidity for 24 h prior to the addition of experimental drugs. After 24 h, two plates of each cell line are fixed in situ with TCA to represent a measurement of the cell population for each cell line at the time of drug addition. Experimental drugs are solubilized in dimethyl sulfoxide at 400-fold the desired final maximum test concentration and stored frozen prior to use. At the time of drug addition, an aliquot of frozen concentrate is thawed and diluted to twice the desired final maximum test concentration with complete medium containing 50 μg/mL gentamicin. […] Bound stain is subsequently solubilized with a 10 mM trizma base, and the absorbance is read on an automated plate reader at a wavelength of 515 nm. […] Three response parameters (GI50, TGI, and LC50) were calculated for each cell line.

CCN(CC)CCOc1ccc(C(=C(C)c2ccc(F)c(OC)c2)c2ccc(Cl)cc2)cc1 [Compound 28, E/Z-(2-{4-[1-(4-Chlorophenyl)-2-(4-fluoro-3-methoxyphenyl)-propenyl]-phenoxy}-ethyl)-diethyl-amine]
GI50: 2400 nM

— paper PMC8621172, “Manipulating Estrogenic/Anti-Estrogenic Activity of Triphenylethylenes towards Development of Novel Anti-Neoplastic SERMs” (International Journal of Molecular Sciences, 2021)
